Columns and labels:
[1] = In vitro metabolic conversion assay using human liver S9 fractions; type: in vitro ADME; settings: 10 μM, 37° C., 60 minutes, LC/MS/MS; for Formation of Gemcitabine: not quantitatively monitored
Procedure: Method H: In Vitro Metabolic Conversion Assay Using Human Liver S9 Fractions
A representative sampling of prodrug compounds was incubated with human liver S9 fractions (Life Technologies Corporation) at 10 μM in duplicates. Incubations were carried out at 37° C. in a shaker water bath. Samples were taken at 0 and 60 minutes. Negative controls (without S9 fractions) and positive controls (7-ethoxycoumarin and 7-hydroxycoumarin) were run concurrently with the test articles in duplicates. All samples were analyzed using LC/MS/MS; depletion of the parent compounds and the formation of gemcitabine were monitored, though the latter was not quantitatively monitored.
After incubation with human liver S9 fractions for 60 minutes, depletion of each test compound was observed along with formation of gemcitabine as a metabolite.

[2] = test system: human HCT116 colorectal adenocarcinoma; experiment: Efficacy evaluation in HCT116 tumor cell xenograft model in nude mice; type: in vivo; settings: female nude mice, subcutaneous HCT116 tumors, Day 14 vs control group
Procedure: Method I: Efficacy Evaluation in HCT116 Tumor Cell Xenograft Model in Nude Mice Compounds 17, 18, 19 and 32 were evaluated for oral activity against human HCT116 colorectal adenocarcinoma in female nude mice. For the treatment groups, the above compounds were given perorally in 15% Tween 80 at a dose of 20 mg/kg once daily for 14 days. As a reference group, gemcitabine was administered intraperitoneally at 160 mg/kg once every three days for 4 doses. A control group received only the vehicle on the same peroral schedule as that of the treatment groups. Treatment began on Day 1 in all groups of female nude mice (n=8) bearing subcutaneous tumors of ˜180 mm^3 in size; the study duration was 14 days. Treatment results were presented as Tumor Growth Inhibition (TGI) as a percentage of average tumor size of untreated mice in the control group at Day 14.

[3] = perorally in 15% Tween 80, 20 mg/kg once daily for 14 days

| Compound | % of Parent Remaining [1] [%] | Formation of Gemcitabine [1] | Tumor Growth Inhibition (TGI) [2, 3] [%] | Tumor Growth Inhibition (TGI) ([2]; intraperitoneally 160 mg/kg once every three days for 4 doses) [%] |
| --- | --- | --- | --- | --- |
| Nc1ccn([C@@H]2O[C@H](COC(=O)CCc3ccccc3)[C@@H](O)C2(F)F)c(=O)n1 [Compound 3, 4-Amino-1-[(2R,4R,5R)-3,3-difluoro-4-hydroxy-5-(3-phenylpropanoyloxymethyl)oxolan-2-yl]-1,2-dihydropyrimidin-2-one] | 1 | ✓ |  |  |
| Nc1ccn([C@@H]2O[C@H](COC(=O)CCCCC(=O)Nc3ccccc3)[C@@H](O)C2(F)F)c(=O)n1 [Compound 6, 4-Amino-1-[(2R,4R,5R)-5-((6-anilino-6-oxo-hexanoyloxy)methyl)-3,3-difluoro-4-hydroxy-oxolan-2-yl]-1,2-dihydropyrimidin-2-one] | 8 | ✓ |  |  |
| CCOC(=O)Nc1ccn([C@@H]2O[C@H](COC(=O)CCc3ccccc3)[C@@H](O)C2(F)F)c(=O)n1 [Compound 10, 1-[(2R,4R,5R)-3,3-Difluoro-4-hydroxy-5-(3-phenylpropanoyloxymethyl)oxolan-2-yl]-1,2-dihydro-4-(ethoxycarbonylamino)-pyrimidin-2-one] | 0 | ✓ |  |  |
| CCOC(=O)Nc1ccn([C@@H]2O[C@H](COC(=O)CCc3cccnc3)[C@@H](O)C2(F)F)c(=O)n1 [Compound 11, 1-[(2R,4R,5R)-3,3-Difluoro-4-hydroxy-5-(3-(3-pyridyl)-propanoyloxymethyl)oxolan-2-yl]-1,2-dihydro-4-(ethoxycarbonylamino)-pyrimidin-2-one] | 0 | ✓ |  |  |
| CCOC(=O)Nc1ccn([C@@H]2O[C@H](COC(=O)CCCCC(=O)Nc3ccccc3)[C@@H](O)C2(F)F)c(=O)n1 [Compound 13, 1-[(2R,4R,5R)-5-((6-Anilino-6-oxo-hexanoyloxy)methyl)-3,3-difluoro-4-hydroxy-oxolan-2-yl]-1,2-dihydro-4-(ethoxycarbonylamino)-pyrimidin-2-one] | 13 | ✓ |  |  |
| CCOC(=O)Nc1ccn([C@@H]2O[C@H](COC(=O)CCCCCCC(=O)Nc3ccccc3)[C@@H](O)C2(F)F)c(=O)n1 [Compound 14, 1-[(2R,4R,5R)-5-((8-Anilino-8-oxo-octanoyloxy)methyl)-3,3-difluoro-4-hydroxy-oxolan-2-yl]-1,2-dihydro-4-(ethoxycarbonylamino)-pyrimidin-2-one] | 0 | ✓ |  |  |
| CCCCOC(=O)Nc1ccn([C@@H]2O[C@H](COC(=O)CCc3ccccc3)[C@@H](O)C2(F)F)c(=O)n1 [Compound 17, 4-(Butyloxycarbonylamino)-1-[(2R,4R,5R)-3,3-difluoro-4-hydroxy-5-(3-phenylpropanoyloxymethyl)oxolan-2-yl]-1,2-dihydropyrimidin-2-one] |  |  | 77.3 |  |
| CCCCOC(=O)Nc1ccn([C@@H]2O[C@H](COC(=O)CCc3cccnc3)[C@@H](O)C2(F)F)c(=O)n1 [Compound 18, 4-(Butyloxycarbonylamino)-1-[(2R,4R,5R)-3,3-difluoro-4-hydroxy-5-(3-(3-pyridyl)propanoyloxymethyl)oxolan-2-yl]-1,2-dihydro-pyrimidin-2-one] |  |  | 81.1 |  |
| CCCCOC(=O)Nc1ccn([C@@H]2O[C@H](COC(=O)CCC(=O)Nc3ccccc3)[C@@H](O)C2(F)F)c(=O)n1 [Compound 19, 1-[(2R,4R,5R)-5-((4-Anilino-4-oxo-butanoyloxy)methyl)-3,3-difluoro-4-hydroxy-oxolan-2-yl]-4-(butyloxycarbonylamino)-1,2-dihydro-pyrimidin-2-one] |  |  | 75.8 |  |
| CCCCCOC(=O)Nc1ccn([C@@H]2O[C@H](COC(=O)CCc3cccnc3)[C@@H](O)C2(F)F)c(=O)n1 [Compound 32, 1-[(2R,4R,5R)-3,3-Difluoro-4-hydroxy-5-(3-(3-pyridyl)-propanoyloxymethyl)oxolan-2-yl]-1,2-dihydro-4-(pentyloxycarbonylamino)-pyrimidin-2-one] |  |  | 86.7 |  |
| CCOC(=O)Nc1ccn([C@@H]2O[C@H](CO)[C@@H](OC(=O)CCc3ccccc3)C2(F)F)c(=O)n1 [Compound 58, 1-[(2R,4R,5R)-3,3-Difluoro-5-hydroxymethyl-4-(3-phenylpropanoyloxy)oxolan-2-yl]-1,2-dihydro-4-(ethoxycarbonylamino)-pyrimidin-2-one] | 0 | ✓ |  |  |
| CCOC(=O)Nc1ccn([C@@H]2O[C@H](CO)[C@@H](OC(=O)CCc3cccnc3)C2(F)F)c(=O)n1 [Compound 59, 1-[(2R,4R,5R)-3,3-Difluoro-5-hydroxymethyl-4-(3-(3-pyridyl)propanoyloxy)oxolan-2-yl]-1,2-dihydro-4-(ethoxycarbonylamino)-pyrimidin-2-one] | 1 | ✓ |  |  |
| CCOC(=O)Nc1ccn([C@@H]2O[C@H](CO)[C@@H](OC(=O)CCCCCCC(=O)Nc3ccccc3)C2(F)F)c(=O)n1 [Compound 62, 1-[(2R,4R,5R)-4-(8-Anilino-8-oxo-octanoyloxy)-3,3-difluoro-5-hydroxymethyl-oxolan-2-yl]-1,2-dihydro-4-(ethoxycarbonylamino)-pyrimidin-2-one] | 2 | ✓ |  |  |
| Nc1ccn([C@@H]2O[C@H](CO)[C@@H](O)C2(F)F)c(=O)n1 [gemcitabine] |  |  |  | 85.6 |

Reference: patent US9890189B2, “Gemcitabine prodrugs and uses thereof” (BoYen Therapeutics, Inc., priority 2012, dated 2018)
